Measured values from patent US7410975B2, “Small molecule toll-like receptor (TLR) antagonists” (Coley Pharmaceutical Group, Inc., priority 2003, dated 2008).
Where a name gives a salt, the structure may show the parent alone.

Biological target: T1, human TLR7 (hTLR7) (Homo sapiens, UniProt Q9NYK1)
T1 construct: expressed in transfected cells
T1 sequence (Q9NYK1 27-1049): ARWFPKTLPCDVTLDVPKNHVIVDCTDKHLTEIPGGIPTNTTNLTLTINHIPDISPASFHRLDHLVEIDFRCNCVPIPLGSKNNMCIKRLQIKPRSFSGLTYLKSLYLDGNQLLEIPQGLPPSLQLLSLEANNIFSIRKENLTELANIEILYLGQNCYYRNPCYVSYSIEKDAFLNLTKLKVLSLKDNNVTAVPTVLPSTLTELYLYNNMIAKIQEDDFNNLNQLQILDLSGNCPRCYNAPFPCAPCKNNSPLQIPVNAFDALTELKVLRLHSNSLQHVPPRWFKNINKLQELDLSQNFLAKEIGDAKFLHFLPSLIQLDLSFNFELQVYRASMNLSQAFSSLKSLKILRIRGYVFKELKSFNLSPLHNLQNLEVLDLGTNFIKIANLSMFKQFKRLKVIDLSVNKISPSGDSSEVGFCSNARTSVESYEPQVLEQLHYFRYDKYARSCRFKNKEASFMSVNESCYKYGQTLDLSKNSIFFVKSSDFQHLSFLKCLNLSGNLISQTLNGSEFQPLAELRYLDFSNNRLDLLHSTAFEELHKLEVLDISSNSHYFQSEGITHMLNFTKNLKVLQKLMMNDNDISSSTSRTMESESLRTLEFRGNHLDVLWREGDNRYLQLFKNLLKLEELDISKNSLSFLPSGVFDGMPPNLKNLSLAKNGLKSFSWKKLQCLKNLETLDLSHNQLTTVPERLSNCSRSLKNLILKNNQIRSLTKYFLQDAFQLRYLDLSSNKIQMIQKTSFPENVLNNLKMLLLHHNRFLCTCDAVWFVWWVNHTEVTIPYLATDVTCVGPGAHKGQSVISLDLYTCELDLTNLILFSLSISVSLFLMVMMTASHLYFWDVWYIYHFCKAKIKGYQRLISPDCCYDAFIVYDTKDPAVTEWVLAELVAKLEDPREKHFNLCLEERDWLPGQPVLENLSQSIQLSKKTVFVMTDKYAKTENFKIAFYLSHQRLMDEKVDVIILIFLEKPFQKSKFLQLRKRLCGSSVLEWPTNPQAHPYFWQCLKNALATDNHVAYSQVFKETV
Test: Antagonist screen, hTLR7-NFκB-293 cells, NF-κB-luciferase reporter, with EC50 of R848
Assay type: cell-based
Conditions: compound at 0.5, 5, 50 μg/ml; EC50 concentration of R848; 16 h; NF-κB-luciferase
Description: The method is described in greater detail as follows. The cells for each individual cell clone (hTLR3-NFκB-293, hTLR7-NFκB-293, hTLR8-NFκB-293 and hTLR9-NFκB-293) were counted and seeded one day before the stimulation at 1.5×10^4 cells per well in 96-well cell culture plates. To become adherent the cells were incubated after seeding overnight at 37° C. in 5% CO2 humidified air.
The screen for each compound was performed at the same time for all of the receptors TLR3, TLR7, TLR8 and TLR9. Up to fifteen test compounds, each assayed in duplicate at each of three different final concentrations (0.5 μg/ml, 5 μg/ml, and 50 μg/ml), were used for 16 h cell stimulation on a single multiwell culture plate. A 4× final concentration master plate was created to prepare the different test compounds before they were added to the cells.
Controls were added as duplicates individually for each cell clone on the cell culture plate. Positive controls were used as follows (final concentrations): 50 μg/ml poly(I:C) for hTLR3-NFκB-293; 8 μM resiquimod (R848) for hTLR7-NFκB-293; 30 μM R848 for hTLR8-NFκB-293; and 2.5 μM CpG-ODN 2006 for hTLR9-NFκB-293. Media alone was used as negative control. After addition of controls and small molecules, the cell clones were additionally stimulated with the EC50 concentration of the appropriate receptor-specific ligand.
The mean value of wells H2 and H5 (each with cells and EC50 concentration of the appropriate receptor-specific ligand) divided by the mean of wells H3 and H6 (each with cells alone) yielded the baseline response (i.e., fold induction of luciferase activity) to EC50 concentration of the appropriate receptor-specific ligand.
After 16 h stimulation the supernatant was removed and the cells treated with lysis buffer and stored at −80° C. before measuring.
For each screen result a graphical documentation was performed.
The baseline result (measured with addition of the EC50 concentration of the receptor-specific ligand) for each cell culture plate was measured as described above. Antagonistic effects were measured by down regulation compared to the baseline. Antagonists were scored as follows: • 13: compounds for which there was clear down regulation at 0.5 μg/ml, 5 μg/ml, and 50 μg/ml; • 12: compounds for which there was clear down regulation at 5 μg/ml and 50 μg/ml; • 11: compounds for which there was clear down regulation only at 50 μg/ml; • —: compounds for which there was no clear down regulation even at 50 μg/ml. Agonists
Results were expressed as fold induction over baseline luciferase activity measured in the absence of R848. […] Additional screening was performed in like manner using additional small molecules selected from another library or specifically prepared for this purpose. Scoring is reported as above but as applied to TLR7.

Row | Compound | hTLR7 (inhibitory effect, antagonist score)
1 | COC(=O)C1=CO[C@@H](C)[C@@H]2CN3CCc4c([nH]c5ccccc45)[C@@H]3C[C@H]12 [compound 593, Tetrahydroalstonine] | 11 (compounds for which there was clear down regulation only at 50 μg/ml)
2 | CC[C@]12CCCN3CCc4c(n(c5ccccc45)C(=O)C1)[C@@H]32 [compound 607, Eburnamonine] | 11 (compounds for which there was clear down regulation only at 50 μg/ml)
3 | Cc1nccc2c1[nH]c1cc(O)ccc12.Cl [compound 612, Harmol hydrochloride monohydrate] | 11 (compounds for which there was clear down regulation only at 50 μg/ml)
4 | COc1ccc2c(c1)[nH]c1c(C)nccc12.Cl [compound 613, harmine hydrochloride] | 13 (compounds for which there was clear down regulation at 0.5 μg/ml, 5 μg/ml, and 50 μg/ml)
5 | Cc1c2ccncc2c(C)c2c1[nH]c1ccccc12 [compound 614, Ellipticine] | 13 (compounds for which there was clear down regulation at 0.5 μg/ml, 5 μg/ml, and 50 μg/ml)
6 | Cc1nccc2c1[nH]c1ccccc12 [compound 620, Harmane hydrochloride] | — (compounds for which there was no clear down regulation even at 50 μg/ml)
7 | COc1ccc2[nH]c3c(c2c1)CCN=C3C [compound 621, Methoxy-6-harmalan] | — (compounds for which there was no clear down regulation even at 50 μg/ml)
8 | CC[C@]12CCCN3CCc4c(n(c5ccccc45)[C@](O)(C(=O)OC)C1)[C@@H]32 [compound 636, Epivincamine] | — (compounds for which there was no clear down regulation even at 50 μg/ml)
9 | Cl.Cl.c1ccc2c3c([nH]c2c1)C1C2CCC(C4CCCNC42)N1CC3 (stereo not shown) [compound 685, Nitrarine dihydorchloride] | — (compounds for which there was no clear down regulation even at 50 μg/ml)
10 | CN(C)CCCN1c2ccccc2Sc2ccccc21.Cl [compound 693, Promazinehydrochloride] | 12 (compounds for which there was clear down regulation at 5 μg/ml and 50 μg/ml)
11 | CN1CCC(OC(c2ccccc2)c2ccccc2)CC1.Cl [compound 707, Diphenylpyralinehydrochloride] | 11 (compounds for which there was clear down regulation only at 50 μg/ml)
12 | CCCC(C(=O)OCCN(CC)CC)(c1ccccc1)c1ccccc1.Cl [compound 778, Proadifen hydrochloride] | 11 (compounds for which there was clear down regulation only at 50 μg/ml)
13 | Cl.Clc1ccc(C(OCCN2CCCCC2)c2ccccc2)cc1 (stereo not shown) [compound 793, Cloperastinehydrochloride] | 11 (compounds for which there was clear down regulation only at 50 μg/ml)
14 | COc1ccc2c(c1)N(CC(C)CN(C)C)c1ccccc1S2.O=C(O)/C=C\C(=O)O (stereo not shown) [compound 797, Methotrimeprazinemaleat salt] | — (compounds for which there was no clear down regulation even at 50 μg/ml)
15 | CS(=O)(=O)O.OC(CCN1CCCCC1)(c1ccccc1)c1ccccc1 [compound 799, Pridinolmethanesulfonate salt] | — (compounds for which there was no clear down regulation even at 50 μg/ml)
16 | C[N+]12CCC(CC1)C(OC(=O)C(O)(c1ccccc1)c1ccccc1)C2.[Br-] (stereo not shown) [compound 822, Clidinium bromide] | — (compounds for which there was no clear down regulation even at 50 μg/ml)

Row | Compound | hTLR7 (inhibitory effect, antagonist score)
17 | Clc1ccc(C(c2ccccc2Cl)C(Cl)Cl)cc1 (stereo not shown) [compound 833, Mitotane] | 11 (compounds for which there was clear down regulation only at 50 μg/ml)
18 | CCN(CC)C(C)CN1c2ccccc2Sc2ccccc21.Cl (stereo not shown) [compound 840, Ethopropazinehydrochloride] | — (compounds for which there was no clear down regulation even at 50 μg/ml)
19 | CC(CN(C)C)CN1c2ccccc2Sc2ccccc21.CC(CN(C)C)CN1c2ccccc2Sc2ccccc21.O=C(O)C(O)C(O)C(=O)O (stereo not shown) [compound 842, Trimeprazine tartrate] | — (compounds for which there was no clear down regulation even at 50 μg/ml)
20 | COC(=O)[C@H]1[C@H]2C[C@@H]3c4[nH]c5cc(OC)ccc5c4CCN3C[C@H]2C[C@@H](OC(=O)c2cc(OC)c(OC)c(OC)c2)[C@@H]1OC [compound 875, Reserpine] | — (compounds for which there was no clear down regulation even at 50 μg/ml)
21 | OCc1cc2c(cn1)[nH]c1ccccc12 [compound 878, 3-hydroxymethyl-beta-carboline] | — (compounds for which there was no clear down regulation even at 50 μg/ml)
22 | O=C(O)c1cc(C(c2ccc(O)c(C(=O)O)c2)C(Cl)(Cl)Cl)ccc1O [compound 884] | 11 (compounds for which there was clear down regulation only at 50 μg/ml)
23 | CN(CCO)C(=O)c1cccc2c1-c1ccccc1C2=O [compound 890] | 11 (compounds for which there was clear down regulation only at 50 μg/ml)
24 | COC(=O)c1cccc2c1-c1ccccc1/C2=N/O [compound 904] | 12 (compounds for which there was clear down regulation at 5 μg/ml and 50 μg/ml)
25 | O=C(O)c1ccccc1NC1CC=CC2=C1C(=O)c1ccccc1C2=O (stereo not shown) [compound 917] | 11 (compounds for which there was clear down regulation only at 50 μg/ml)
26 | O=C(O)c1cccc2c1/C(=N/O)c1ccccc1-2 [compound 918] | 11 (compounds for which there was clear down regulation only at 50 μg/ml)
27 | CCCCOC(=O)c1cc([N+](=O)[O-])cc2c1-c1cc(CO)c([NH+]([O-])O)cc1C2=C(C#N)C#N (stereo not shown) [compound 939] | 11 (compounds for which there was clear down regulation only at 50 μg/ml)
28 | O=C(O)c1cccc2c1-c1ccccc1/C2=N/Nc1ccc([N+](=O)[O-])cc1[N+](=O)[O-] [compound 944] | 11 (compounds for which there was clear down regulation only at 50 μg/ml)
29 | C=CCc1ccccc1OC1(c2ccccc2)OC(=O)c2ccccc21 (stereo not shown) [compound 957] | 11 (compounds for which there was clear down regulation only at 50 μg/ml)
30 | COC(=O)c1ccc(C2CC(=O)Nc3c2ccc2ccccc32)cc1 (stereo not shown) [compound 965] | 12 (compounds for which there was clear down regulation at 5 μg/ml and 50 μg/ml)
31 | O=C(O)c1ccc(C2(c3ccc(C(=O)O)cc3)OC(=O)c3ccccc32)cc1 [compound 970] | — (compounds for which there was no clear down regulation even at 50 μg/ml)
